Assay results from patent publication US8937167B2 (Washington University, priority 2009, dated 2015).
Like-named read-outs stand apart in the source and are kept apart here.

Legend:
UTI89 biofilm = assay: UTI89 type 1 dependent biofilm formation (inhibition/prevention) assay on PVC, crystal violet; assay type: cell-based, uropathogenic E. coli UTI89
How it was run: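 Prevention: UTI89 grown in LB in PVC wells at 23° C with mannoside at varying concentrations for 48 h, then crystal violet stained and quantified. Disruption: 24 h UTI89 biofilm, mannoside added, grown 16 h more, then crystal violet.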

[1] = Mouse urine pharmacokinetics of mannosides (LC-MS); conditions: in vivo
Experimental: Pharmacokinetic (PK) studies with ZFH-2056 evaluated in vivo dosing conditions after intraperitoneal (IP) injection or oral (PO) gavage. ZFH-2056 was dosed IP and compound levels in the urine were evaluated at several timepoints by HPLC using mass spectrometry (MS) detection. […] Since oral dosing is the desired route of delivery, we next evaluated the concentration of drug after 100 mg/kg PO of ZFH-2056.
(§1) Pharamacokinetic analysis. For intraperitoneal dosing, 50 μl of a 2 mg/ml (5 mg/kg) or 4 mg/ml (10 mg/kg) solution of ZFH-2056 in PBS was injected into the peritoneal cavity of the mouse. For oral dosing, 100 μl of a 20 mg/ml (100 mg/kg) solution of ZFH-2056 in 8% DMSO was inoculated with a gavage needle into the mouse stomach. Urine was collected at 30 min, 1, 2, 3, 4, 6, and 8 h post-treatment. An equal volume of 10 μM internal standard (ZFH-2050) was added to the urine. Mannosides were extracted from the urine by loading on C18 columns (100 mg, Waters), washing with 30% methanol, and eluting with 60% methanol. […] Absolute quantification was achieved by comparison to a calibration curve.
as §1, with “For” for “Pharamacokinetic analysis. For intraperitoneal dosing, 50 μl of a 2 mg/ml (5 mg/kg) or 4 mg/ml (10 mg/kg) solution of ZFH-2056 in PBS was injected into the peritoneal cavity of the mouse. For”

PBC-1 = assay: Growth curve / MIC determination in LB; assay type: cell-based, E. coli (UPEC); conditions: 100 μM mannoside, varying TMP-SMZ
Experimental: Growth curve. […] Mannoside ZFH-2056 was added at 100 μM. Growth curves were performed in a 96-well plate at 37° C. with A600 readings taken every 30 min for 8 h.
Mannoside 6 was added at 100 μM. Growth curves were performed in a 96-well plate at 37° C. with A600 readings taken every 30 min for 8 h. Minimum inhibitory concentration (MIC) was calculated as the lowest concentration of antibiotic that prevented growth of the bacterial strain.

Row | SMILES | IC50 (UTI89 biofilm; Escherichia coli, read-out: Biofilm Prevention IC50) [nM] | drug cleared to the urine intact / unchanged [1] [%] | hydrolysis products (D-mannose and phenol) in urine [1] [%] | level in urine ([1]; ip) [nM] | effect on efficacy of TMP-SMZ killing in vitro (PBC-1) | IC50 (UTI89 biofilm; read-out: biofilm inhibition IC50) [nM]
1 | COC(=O)c1cccc(-c2ccc(O[C@H]3O[C@H](CO)[C@@H](O)[C@H](O)[C@@H]3O)cc2)c1 [Compound 1, phenyl mannoside, reference compound] | 940 | – | – | – | – | –
2 | CNC(=O)c1cc(C(=O)NC)cc(-c2ccc(O[C@H]3O[C@H](CO)[C@@H](O)[C@H](O)[C@@H]3O)cc2)c1 [ZFH-2056] | – | > 95 | < 5 | ≤ 740 | not found to increase the efficacy of TMP-SMZ killing | 740
